Measurements taken from patent US20050203013A1, “Methods for inhibiting vascular permeability” (priority 2002, published 2005).
Like-named read-outs stand apart in the source and are kept apart here.

What was measured:
VEGFR-2 [1] = assay: VEGFR-2 phosphorylation in HUVEC; type: cell-based, Human; conditions: 5 ng/ml for 2 hours
Protocol: (§1) Serum-starved (0.1% FBS in EBM-2 media for 24 hours) HMVEC-d or HUVEC were treated with 5 ng/ml TNP-470 and HPMA copolymer-TNP-470 at 37° C. for 2 hours, and then stimulated with 10 ng/ml of VEGF for 5 minutes. Stimulation was stopped by adding cold PBS. […] After washing the beads with precipitation buffer, immunoprecipitates were resuspended in 2× SDS sample buffer for Western blot analysis with an antibody against phosphorylated tyrosine (pTyr).

[2] = tested on: U87 glioblastoma tumor blood vessel permeability; assay: Miles assay on tumor-bearing mice (Example 3), U87; set-up: species or system SCID mice; conditions: mouse, in vivo
Protocol: Female SCID mice ( 8 weeks, 20 g) were inoculated s.c. with 5×10^6 viable U87 glioblastoma cells or viable A2058 human melanoma cells or BXPC3 pancreas adenocarcinoma cells. Female nu/nu mice were inoculated with MCF-7 or MDA-MB-231 breast carcinoma cells in the mammary fat pad. C57B1/6J were inoculated with LLC. […] blue dye was then injected i.v. and extravasation of dye assessed as above. Also, blood was withdrawn to measure VPF/VEGF levels in plasma and in tumors (n=5 from each group). Tumors (n=5 per group) were dissected, weighed and cut in half. Half of the tumor was placed in formalin and half was analyzed for VPF/VEGF protein by ELISA (see below). Formalin fixed tumors were processed for sectioning and staining with H & E, CD31, smooth muscle actin (SMA) and proliferating cell nuclear antigen (PCNA) according to the manufacturers' instructions.

HMVEC-d cells = assay: Cell proliferation assay, HMVEC-d; type: cell-based, Human
Protocol: (§2) HMVEC-d cells were trypsinized (0.05% trypsin) and resuspended (15,000 cells/ml) in EBM-2 supplemented with 5% fetal bovine serum (FBS), plated onto gelatinized 24-well culture plates (0.5 ml/well), and incubated for 24 hours (37° C., 5% CO2). The media was replaced with 0.5 ml of complete media (serum and growth factors; EGM-2 MV), and test substances were applied. Cells were challenged with free or conjugated TNP-470 (0.01 pg/ml to 1 mg/ml TNP-470-equivalent concentration). Control cells were grown with or without growth factors. U87 glioblastoma cells were washed with PBS, trypsinized and resuspended (5,000 cells/ml) in DMEM supplemented with 10% FBS, plated onto 24-well culture plates (0.5 ml/well), and incubated for 24 hours (37° C., 5% CO2). The media was replaced with 0.5 ml of DMEM and 10% FBS, and the test sample applied. Cells were challenged with free or conjugated TNP-470 (0.01 pg/ml to 1 mg/ml TNP-470-equivalent concentration). Control cells were grown with or without 10% FBS. Both cell types were incubated for 72 hours, followed by trypsinization, resuspension in Hematall (Fisher Scientific, Pittsburgh, Pa.), and counted in a Coulter counter.

[3] = tested on: LLC, A2058, MCF-7, MDA-MB-231, BXPC3, U87 tumors; conditions: cited from earlier work
VEGFR-2 [4] = assay: VEGFR-2 phosphorylation in HMVEC-d; type: cell-based, Human; conditions: 5 ng/ml for 2 hours
Protocol: as §1

MAPK = assay: Phosphorylation of MAPK; type: cell-based, Human; conditions: HMVEC-d
Protocol: Serum-starved HMVEC-d were treated with 5 ng/ml TNP-470 at 37° C. for 2 hours, and then stimulated with 10 ng/ml of VEGF for 5 minutes. Stimulation was stopped by adding cold PBS. Cells were lysed with cold radioimmune precipitation buffer. Cellular extracts (20 μg) were immunoblotted with an antibody against phosphorylated MAPK (p-MAPK) (Cell Signaling Technology Inc.). The blot was stripped and reprobed with an antibody against MAPK to confirm equal protein loading.

U87 glioblastoma cells = assay: Cell proliferation assay, U87; type: cell-based, human; conditions: 72 hours
Protocol: as §2

liver regeneration = assay: Liver regeneration after 2/3 hepatectomy; type: in vivo, C57 black male mice; conditions: post-operative day 8
Protocol: C57 black male mice underwent a ⅔ hepatectomy through a midline incision after general anesthesia with isoflourane. Free and conjugated TNP-470 (30 mg/kg) was given s.c. every other day for 8 days beginning on the day of surgery. The liver was harvested on the 8th day, weighed and analyzed for histology.

For `CO[C@@H]1[C@H](OC(=O)NC(=O)CCl)CC[C@]2(CO2)[C@H]1[C@@]1(C)O[C@@H]1CC=C(C)C` [TNP-470], the “VPF/VEGF-induced phosphorylation of VEGFR-2” value (VEGFR-2 [1]) was “significantly reduced”, the “Evan's blue extravasation into U87 glioblastomas” value [2] was “did not inhibit” and the “endothelial cell vs tumor cell inhibitory concentration difference” value (HMVEC-d cells; HMVEC-d vs U87) was 4 orders of magnitude. The “concentration inhibiting growth factor-induced proliferation without cytotoxicity” value (HMVEC-d cells; HMVEC-d, 72 hours) was no less than 1 pg/mL, the cytotoxic concentration (HMVEC-d cells; HMVEC-d, 72 hours) was “higher than 1 μg/ml” and the tumor growth inhibition ([3]; U87 glioblastoma in mice) was 95%. The tumor growth inhibition ([3]; all tumor models studied) was 60-95%, the “VPF/VEGF-induced phosphorylation of VEGFR-2” value (VEGFR-2 [4]) was “significantly reduced” and the “VPF/VEGF-induced MAPK phosphorylation” value (MAPK) was “inhibited”. For the same compound, the “concentration inhibiting serum-induced proliferation (cytostatic effect)” value (U87 glioblastoma cells; U87 glioblastoma cells) was “higher than 10 ng/ml”, the cytotoxic concentration (U87 glioblastoma cells; U87 tumor cells) was “higher than 100 μg/ml” and the average liver size (liver regeneration) was 0.7 g.
